Assay results taken from patent US5607926A, “Cephalosporin antibiotics” (Microcide Pharmaceuticals, Inc., priority 1995, dated 1997).
In brackets after ≈: the same amount, converted by molar mass. Structures can show the parent of a compound that is named as a salt. Where two headings read alike, the source gives them in different places.

What was measured:
Type in all cases: cell-based
[1] = test system: S. aureus Col8A (Meth^S)(lac^-); experiment: In vitro antibacterial evaluation, MIC by agar dilution, S. aureus Col8A; settings: Staphylococcus aureus
Method in brief: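 Agar dilution per NCCLS (1991): two-fold dilutions from 128 μg/mL down to ≤0.25 μg/mL in Mueller-Hinton agar, each level in duplicate. Spots of about 10^4 cfu of log-phase culture; 16-20 h at 35°-36° C. MIC in μg/ml is the lowest concentration inhibiting growth.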

S. haemolyticus (Meth^R) = experiment: In vitro antibacterial evaluation, MIC by agar dilution, S. haemolyticus; settings: Staphylococcus haemolyticus, read-out: MIC
Method in brief: (§1)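 Minimum inhibitory concentrations came from the NCCLS agar dilution method in Mueller-Hinton agar. Each isolate received about 10^4 cfu per spot, and plates were read after 16-20 hours at 35°-36° C.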

[2] = test system: S. epidermidis ATCC 31432; experiment: In vitro antibacterial evaluation, MIC by agar dilution, S. epidermidis ATCC 31432; settings: Staphylococcus epidermidis, ATCC31432
Method in brief: as §1

E. faecium ATCC 35667 = experiment: In vitro antibacterial evaluation, MIC by agar dilution, E. faecium ATCC 35667; settings: Enterococcus faecium, ATCC35667, read-out: MIC
Method in brief: as §1

E. faecalis ATCC 29212 = experiment: In vitro antibacterial evaluation, MIC by agar dilution, E. faecalis ATCC 29212; settings: Enterococcus faecalis, ATCC29212; E. faecalis ATCC 29212; read-out: MIC
Method in brief: as §1

[3] = test system: S. aureus 76 (Meth^R)(lac^+); experiment: In vitro antibacterial evaluation, MIC by agar dilution, S. aureus 76; settings: Staphylococcus aureus, read-out: MIC
Method in brief: as §1

S. aureus ATCC 29213 = experiment: In vitro antibacterial evaluation, MIC by agar dilution, S. aureus ATCC 29213; settings: Staphylococcus aureus, ATCC29213
Method in brief: as §1

S. aureus ATCC 25923 = experiment: In vitro antibacterial evaluation, MIC by agar dilution, S. aureus ATCC 25923; settings: Staphylococcus aureus, ATCC25923
Method in brief: as §1

P. aeruginosa ATCC 27853 = experiment: In vitro antibacterial evaluation, MIC by agar dilution, P. aeruginosa ATCC 27853; settings: Pseudomonas aeruginosa, ATCC27853, read-out: MIC
Method in brief: as §1

E. coli ATCC 25922 = experiment: In vitro antibacterial evaluation, MIC by agar dilution, E. coli ATCC 25922; settings: Escherichia coli, ATCC25922, read-out: MIC
Method in brief: as §1

[4] = S. aureus ATCC 29213, read-out: MIC

N#CCC(=O)N[C@@H]1C(=O)N2C(C(=O)O)=C(Sc3ccccc3C#N)CS[C@H]12 [Cmpd 52, (7R)-7-[(Cyanoacetyl)amino]-3-(2-cyanophenylthio)-3-cephem-4-carboxylic acid]
MIC [1]: 0.5 µg/mL (≈ 1.25 µM) | MIC (S. haemolyticus (Meth^R)): 16 µg/mL (≈ 40 µM) | MIC ([2]; S. epidermidis ATCC 31432, read-out: MIC): < 0.25 µg/mL | MIC (E. faecium ATCC 35667): 2 µg/mL (≈ 4.99 µM) | MIC (E. faecalis ATCC 29212): 4 µg/mL (≈ 9.99 µM) | MIC [3]: 16 µg/mL (≈ 40 µM) | MIC (S. aureus ATCC 29213; [4]): 0.5 µg/mL (≈ 1.25 µM) | MIC (S. aureus ATCC 25923; S. aureus ATCC 25923, read-out: MIC): < 0.25 µg/mL | MIC (P. aeruginosa ATCC 27853): > 32 µg/mL | MIC (E. coli ATCC 25922): > 32 µg/mL

O=C1CNC(SCc2ccccc2SC2=C(C(=O)O)N3C(=O)[C@@H](NC(=O)Cc4ccccc4)[C@H]3SC2)=N1 [Cmpd 68]
MIC [1]: < 0.25 µg/mL | MIC (S. haemolyticus (Meth^R)): 32 µg/mL (≈ 57.7 µM) | MIC [2]: < 0.25 µg/mL | MIC (E. faecium ATCC 35667): 4 µg/mL (≈ 7.21 µM) | MIC (E. faecalis ATCC 29212): 4 µg/mL (≈ 7.21 µM) | MIC [3]: 16 µg/mL (≈ 28.8 µM) | MIC (S. aureus ATCC 29213): < 0.25 µg/mL | MIC (S. aureus ATCC 25923): < 0.25 µg/mL | MIC (P. aeruginosa ATCC 27853): > 32 µg/mL | MIC (E. coli ATCC 25922): > 32 µg/mL

C[n+]1ccc(SCc2ccccc2SC2=C(C(=O)[O-])N3C(=O)[C@@H](NC(=O)Cc4ccccc4)[C@H]3SC2)cc1 [Cmpd 73, (7R)-7-[(Phenylacetyl)amino]-3-(2-(N-methylpyridin-4-ium)thiomethyl)phenylthio)-3-cephem-4-carboxylate, inner salt]
MIC [1]: < 0.25 µg/mL | MIC (S. haemolyticus (Meth^R)): 32 µg/mL | MIC [2]: < 0.25 µg/mL | MIC (E. faecium ATCC 35667): 1 µg/mL | MIC (E. faecalis ATCC 29212): 0.5 µg/mL | MIC [3]: 16 µg/mL | MIC (S. aureus ATCC 29213): < 0.25 µg/mL | MIC (S. aureus ATCC 25923): < 0.25 µg/mL | MIC (P. aeruginosa ATCC 27853): > 32 µg/mL | MIC (E. coli ATCC 25922): > 32 µg/mL

N#CCC(=O)N[C@@H]1C(=O)N2C(C(=O)O)=C(Sc3cccnc3-c3ccccc3)CS[C@H]12 [Cmpd 85, (7R)-7-[(Cyanoacetyl)amino]-3-(2-phenylpyridin-3-ylthio)-3-cephem-4-carboxylic acid]
MIC [1]: < 0.25 µg/mL | MIC (S. haemolyticus (Meth^R)): 16 µg/mL (≈ 35.4 µM) | MIC [2]: < 0.25 µg/mL | MIC (E. faecium ATCC 35667): 2 µg/mL (≈ 4.42 µM) | MIC (E. faecalis ATCC 29212): 4 µg/mL (≈ 8.84 µM) | MIC [3]: 16 µg/mL (≈ 35.4 µM) | MIC (S. aureus ATCC 29213): < 0.25 µg/mL | MIC (S. aureus ATCC 25923): < 0.25 µg/mL | MIC (P. aeruginosa ATCC 27853): > 32 µg/mL | MIC (E. coli ATCC 25922): > 32 µg/mL

O=C(Cc1ccccc1)N[C@@H]1C(=O)N2C(C(=O)O)=C(Sc3ccc(CSc4ncn[nH]4)cc3)CS[C@H]12 [Cmpd 65, (7R)-7-[(Phenylacetyl)amino]-3-(4-(1,2,4-triazol-5-ylthiomethyl)phenylthio)-3-cephem-4-carboxylic acid]
MIC [1]: < 0.25 µg/mL | MIC (S. haemolyticus (Meth^R)): 32 µg/mL (≈ 59.3 µM) | MIC [2]: < 0.25 µg/mL | MIC (E. faecium ATCC 35667): 2 µg/mL (≈ 3.71 µM) | MIC (E. faecalis ATCC 29212): 1 µg/mL (≈ 1.85 µM) | MIC [3]: 32 µg/mL (≈ 59.3 µM) | MIC (S. aureus ATCC 29213): < 0.25 µg/mL | MIC (S. aureus ATCC 25923): < 0.25 µg/mL | MIC (P. aeruginosa ATCC 27853): > 32 µg/mL | MIC (E. coli ATCC 25922): > 32 µg/mL

Nc1nc(-c2ccccc2)c(SC2=C(C(=O)O)N3C(=O)[C@@H](NC(=O)Cc4ccccc4)[C@H]3SC2)s1 [Cmpd 92, (7R)-7-[(Phenylacetyl)amino]-3-(2-amino-4-phenyl-thiazol-5-ylthio)-3-cephem-4-carboxylic acid]
MIC [1]: < 0.25 µg/mL | MIC (S. haemolyticus (Meth^R)): 8 µg/mL (≈ 15.2 µM) | MIC [2]: < 0.25 µg/mL | MIC (E. faecium ATCC 35667): 16 µg/mL (≈ 30.5 µM) | MIC (E. faecalis ATCC 29212): 16 µg/mL (≈ 30.5 µM) | MIC [3]: 16 µg/mL (≈ 30.5 µM) | MIC (S. aureus ATCC 29213): < 0.25 µg/mL | MIC (S. aureus ATCC 25923): < 0.25 µg/mL | MIC (P. aeruginosa ATCC 27853): > 32 µg/mL | MIC (E. coli ATCC 25922): > 32 µg/mL

N#Cc1ccc(SC2=C(C(=O)O)N3C(=O)[C@@H](NC(=O)Cc4ccccc4)[C@H]3SC2)c(C#N)c1 [Cmpd 51, (7R)-7-[(Phenylacetyl)amino]-3-(2,4-dicyanophenylthio)-3-cephem-4-carboxylic acid]
MIC [1]: < 0.25 µg/mL | MIC (S. haemolyticus (Meth^R)): 32 µg/mL (≈ 67.2 µM) | MIC [2]: < 0.25 µg/mL | MIC (E. faecium ATCC 35667): 4 µg/mL (≈ 8.39 µM) | MIC (E. faecalis ATCC 29212): 4 µg/mL (≈ 8.39 µM) | MIC [3]: 8 µg/mL (≈ 16.8 µM) | MIC (S. aureus ATCC 29213; [4]): 0.5 µg/mL (≈ 1.05 µM) | MIC (S. aureus ATCC 25923): < 0.25 µg/mL | MIC (P. aeruginosa ATCC 27853): > 32 µg/mL | MIC (E. coli ATCC 25922): > 32 µg/mL
